This is an account of results in article PMC9701179, “New tricyclic systems as photosensitizers towards triple negative breast cancer cells” (Archives of Pharmacal Research, 2022).

Like-named read-outs stand apart in the source and are kept apart here.

One data set concerns MDA-MB-231 cells. Nature of the data set: MTT cytotoxicity/photocytotoxicity test on human TNBC MDA-MB-231 cells. Type of data set: cell-based. The note with it: for IC50: Homo sapiens. The procedure:
The irradiation device used for the irradiation of cell cultures during the assays was a black box equipped with two Philips UVA lamps with an irradiance of 17 mW cm^−2 and a centered emission peak at 365 nm; UVA irradiance was measured using a Waldmann Variocontrol radiometer, equipped with a UVA sensor. The box was maintained at room temperature inside with a fan and the multiwell plates were placed onto a water-refrigerated metal block.
Human triple negative (TNBC) breast MDA-MB-231 carcinoma cells were obtained from American Type Culture Collection (ATCC, Rockville, MD, USA). Human embryonic kidney HEK293 cells were obtained from the European Collection of Cell Cultures (ECACC, Salisbury, UK). Cell lines were maintained in the logarithmic phase at 37 °C in a 5% CO2 atmosphere using the following culture media containing 10% foetal calf serum (Euroclone, Milan, Italy), antibiotics (50 units/mL penicillin and 50 μg/mL streptomycin) and 2 mM l-glutamine: (i) RPMI-1640 medium (Euroclone, Milan, Italy) for MDA-MB-231 4 cells; (ii) DMEM (Euroclone, Milan, Italy) for HEK293 cells.
Cells (5–8 × 10^3 cells/well, dependent upon the growth characteristics of the cell line) were seeded in 96-well microplates in growth medium (100 μL). After 24 h, the medium was removed and replaced with a fresh one containing the compound to be studied at the appropriate concentration. Triplicate cultures were established for each treatment. For photocytotoxicity studies, after 1 h of incubation the medium was replaced with PBS and cells were treated with 2.0 J cm^−2 of UVA light. After irradiation, PBS was replaced with complete proliferation media. For pre-irradiation studies, instead, compounds in PBS were irradiated with 2.0 J cm^−2 of UVA light and subsequently cells were treated with pre-irradiated solutions. Following 24 h, each well was treated with 10 μL of a 5 mg/mL MTT saline solution, and following 5 h of incubation, 100 μL of a sodium dodecyl sulfate (SDS) solution in HCl 0.01 M were added. After an overnight incubation, cell growth inhibition was detected by measuring the absorbance of each well at 570 nm using a Bio-Rad 680 microplate reader. Mean absorbance for each drug dose was expressed as a percentage of the control untreated well absorbance and plotted against drug concentration. IC50 values, the drug concentrations that reduce the mean absorbance at 570 nm to 50% of those in the untreated control wells, were calculated by the four-parameter logistic (4-PL) model. Evaluation was based on means from at least four independent experiments.
The new synthetized pyrrolo[1,2-h][1,7]naphthyridinones 7 and pyrido[2,3-c]pyrrolo[1,2-a]azepinones 8 were screened for their cytotoxicity (in the dark) and photocitotoxicity (upon UVA light irradiation at 2.0 J/cm^2) profile on human TNBC cells, MDA-MB-231. The cytotoxicity/photocytotoxicity parameters, expressed in terms of IC50 values obtained by MTT test after 24 h of drug-exposure, are listed in Table 2.

[1] abbreviates: MDA-MB-231, in the dark, 1 h pre-treatment, recovered for total 24 h, read-out: Dark IC50 (µM) ± S.D.
The mark [2] stands for this setting: light or radiation study, MDA-MB-231, 1 h pre-treatment, UVA 2.0 J/cm^2, recovered for total 24 h, read-out: UVA (2.0 J/cm^2) IC50 (µM) ± S.D.

As to `CC(C)OC(=O)c1ccc2n1CCCc1cc(S(=O)(=O)c3ccccc3)c(=O)[nH]c1-2` [Compound 8b, Propan-2-yl 3-(benzenesulfonyl)-2-oxo-1,5,6,7-tetrahydro-2H-pyrido[2,3-c]pyrrolo[1,2-a]azepine-9-carboxylate], the IC50 in the data set on MDA-MB-231 cells (setting [1]) and in the data set with MDA-MB-231 cells (setting [2]) was greater than 50 µM each time.
For `CC(C)OC(=O)C1(Br)C=CC2=C3NC(=O)C(S(=O)(=O)c4ccccc4)C=C3CCCN21` (centres unmarked) [Compound 8h, Propan-2-yl 3-(benzenesulfonyl)-9-bromo-2-oxo-1,5,6,7-tetrahydro-2H-pyrido[2,3-c]pyrrolo[1,2-a]azepine-9-carboxylate], the melting point (in general, the temperature of the solid-liquid transition) fell in the range of 167 to 168 °C. Further, the IC50 with MDA-MB-231 cells (setting [1]) was greater than 50 µM. Moreover, the IC50 in the data set with MDA-MB-231 cells (setting [2]) was greater than 50 µM. Further, the “UVA (2.0 J/cm^2) IC50 (µM) ± S.D” value in the data set with MDA-MB-231 cells (MDA-MB-231, 1 h pre-treatment, UVA 2.0 J/cm^2, recovered for total 24 h) is on record as “completely ineffective in inhibiting cancer cell proliferation upon irradiation”.
On to `CCOC(=O)c1ccc2n1CCc1cc(S(=O)(=O)c3ccccc3)c(=O)[nH]c1-2` [Compound 7b, Ethyl 3-(benzenesulfonyl)-2-oxo-1,2,5,6-tetrahydropyrrolo[1,2-h][1,7]naphthyridine-8-carboxylate], for which the IC50 in the data set with MDA-MB-231 cells (setting [1]) is greater than 50 µM; in the data set with MDA-MB-231 cells (setting [2]), 21 ± 0.4 µM.
In turn, `O=c1[nH]c2c(cc1S(=O)(=O)c1ccccc1)CCn1cccc1-2` [Compound 7a, 3-(benzenesulfonyl)-5,6-dihydropyrrolo[1,2-h][1,7]naphthyridin-2(1H)-one] displayed a melting point of 317 to 318 °C. For the same compound, the IC50 with MDA-MB-231 cells (setting [1]) is greater than 50 µM. The IC50 in the data set on MDA-MB-231 cells (setting [2]) was greater than 50 µM.
`Cn1c2c(cc(S(=O)(=O)c3ccccc3)c1=O)CCn1cccc1-2` [Compound 7d, 1-Methyl-3-(benzenesulfonyl)-5,6-dihydropyrrolo[1,2-h][1,7]naphthyridin-2(1H)-one] yielded a melting point of 268 to 269 °C. Further, the IC50 with MDA-MB-231 cells (setting [1]) is greater than 50 µM. In addition, the IC50 with MDA-MB-231 cells (setting [2]) was greater than 50 µM.
Take `CC(C)OC(=O)c1ccc2n1CCc1cc(S(=O)(=O)c3ccccc3)c(=O)[nH]c1-2` [Compound 7c, Propan-2-yl 3-(benzenesulfonyl)-2-oxo-1,2,5,6-tetrahydropyrrolo[1,2-h][1,7]naphthyridine-8-carboxylate]: the IC50 with MDA-MB-231 cells (setting [1]) and in the data set on MDA-MB-231 cells (setting [2]) was greater than 50 µM each time.
For `CC(C)OC(=O)C1(Br)C=CC2=C3NC(=O)C(S(=O)(=O)c4ccccc4)C=C3CCN21` (centres unmarked) [Compound 7k, Propan-2-yl 3-(benzenesulfonyl)-8-bromo-2-oxo-1,2,5,6-tetrahydropyrrolo[1,2-h][1,7]naphthyridine-8-carboxylate], the melting point is 174 to 175 °C.
On to `COc1nc2c(cc1S(=O)(=O)c1ccccc1)CCn1cccc1-2` [Compound 7g, 2-methoxy-3-(phenylsulfonyl)-5,6-dihydropyrrolo[1,2-h][1,7]naphthyridine], for which the melting point fell in the range of 210 to 211 °C. Also, in the data set on MDA-MB-231 cells (setting [1]), the IC50 was greater than 50 µM. In addition, the IC50 with MDA-MB-231 cells (setting [2]) was greater than 50 µM.
`CCOC(=O)C1(Br)C=CC2=C3NC(=O)C(S(=O)(=O)c4ccccc4)C=C3CCCN21` (centres unmarked) [Compound 8g, Ethyl 3-(benzenesulfonyl)-9-bromo-2-oxo-1,5,6,7-tetrahydro-2H-pyrido[2,3-c]pyrrolo[1,2-a]azepine-9-carboxylate] gave a melting point of 172 to 173 °C.
For the compound `CCOC(=O)c1ccc2n1CCCc1cc(S(=O)(=O)c3ccccc3)c(=O)n(C)c1-2` [Compound 8c, Ethyl 3-(benzenesulfonyl)-1-methyl-2-oxo-1,5,6,7-tetrahydro-2H-pyrido[2,3-c]pyrrolo[1,2-a]azepine-9-carboxylate], the IC50 in the data set with MDA-MB-231 cells (setting [1]) is greater than 50 µM; with MDA-MB-231 cells (setting [2]), 24.9 ± 2.8 µM.
`COc1nc2c(cc1S(=O)(=O)c1ccccc1)CCn1c(C(=O)OC(C)C)ccc1-2` [Compound 7i, Propan-2-yl 3-(benzenesulfonyl)-2-methoxy-5,6-dihydropyrrolo[1,2-h][1,7]naphthyridine-8-carboxylate]: the figures for the IC50 in the data set on MDA-MB-231 cells (setting [1]) and in the data set on MDA-MB-231 cells (setting [2]) were greater than 50 µM and 7.9 ± 0.5 µM, respectively.
On the same counts, the results for `CC(C)OC(=O)c1ccc2n1CCc1cc(S(=O)(=O)c3ccccc3)c(=O)n(C)c1-2` [Compound 7f, Propan-2-yl 3-(benzenesulfonyl)-1-methyl-2-oxo-1,2,5,6-tetrahydropyrrolo[1,2-h][1,7]naphthyridine-8-carboxylate] are greater than 50 µM and greater than 50 µM.
Taken in the same sequence, the figures for `CCOC(=O)c1ccc2n1CCCc1cc(S(=O)(=O)c3ccccc3)c(=O)[nH]c1-2` [Compound 8a, Ethyl 3-(benzenesulfonyl)-2-oxo-1,5,6,7-tetrahydro-2H-pyrido[2,3-c]pyrrolo[1,2-a]azepine-9-carboxylate] were greater than 50 µM and greater than 50 µM.
As to `COc1nc2c(cc1S(=O)(=O)c1ccccc1)CCCn1c(C(=O)OC(C)C)ccc1-2` [Compound 8f, Propan-2-yl 3-(benzenesulfonyl)-2-methoxy-6,7-dihydro-5H-pyrido[2,3-c]pyrrolo[1,2-a]azepine-9-carboxylate], the values for the IC50 in the data set with MDA-MB-231 cells (setting [1]) and in the data set on MDA-MB-231 cells (setting [2]) were greater than 50 µM and 23.7 ± 1.5 µM, respectively.
Compound `CCOC(=O)C1(Br)C=CC2=C3NC(=O)C(S(=O)(=O)c4ccccc4)C=C3CCN21` (centres unmarked) [Compound 7j, Ethyl 3-(benzenesulfonyl)-8-bromo-2-oxo-1,2,5,6-tetrahydropyrrolo[1,2-h][1,7]naphthyridine-8-carboxylate] returned a melting point of 196 to 197 °C.
